In brackets after ≈: the same amount, converted by molar mass.
Key:
oral toxicity in mice = details: mouse, in vivo, oral administration, read-out: oral dosage tolerated without exhibiting toxic symptoms
Procedure: The new cephalosporin derivative of this invention may be administered orally at a unit dose of 100 mg to 250 mg to an adult human patient four times a day, for a guideline. However, precise dosage of the new cephalosporin is determinable through preliminary routine experiments, depending on the body weight, ages, sex and other various parameters of patients as well as the nature of the bacterial infections to be treated, and so on.

[1] = tested on: Citrobacter freundii GN346/16; assay: antibacterial activity, MIC by standard serial dilution method; type: cell-based
Excerpt: (§1) Antibacterial activity of Compounds Nos. 1, 3, 5, 7, 9, 11, 13, 15, 17, 19, 21, 23, 25, 27, 29, 31, 33, 35 and 37 indentified hereinbefore which are the particular examples of the new cephalosporin derivative of general formula (I) according to this invention and which are in the form of the free carboxylic acid was estimated by determining the minimum inhibitory concentrations (MIC., μg/ml) of these compounds against a variety of bacteria according to a standard serial dilution method.

[2] = tested on: Citrobacter freundii GN346; assay: as above; type: cell-based
Excerpt: as §1

[3] = tested on: Enterobacter cloacae G-0008; assay: as above; type: cell-based; details: G0008
Excerpt: as §1

[4] = tested on: Enterobacter cloacae GN7471; assay: as above; type: cell-based
Excerpt: as §1

[5] = tested on: Enterobacter hirae ATCC8043; assay: as above; type: cell-based
Excerpt: as §1

[6] = tested on: Entrobacter faecalis W-73; assay: as above; type: cell-based
Excerpt: as §1

Escherichia coli 255/S-1 = assay: as above; type: cell-based; details: 255/S1
Excerpt: as §1

Escherichia coli 255 = assay: as above; type: cell-based
Excerpt: as §1

Escherichia coli GN206 = assay: as above; type: cell-based
Excerpt: as §1

[7] = tested on: Escherichia coli NIHJ JC-2; assay: as above; type: cell-based; details: NIHJJC2
Excerpt: as §1

[8] = tested on: Escherichia coli W3630 RGN823; assay: as above; type: cell-based; details: W3630RGN823
Excerpt: as §1

[9] = tested on: Klebsiella pneumoniae GN69; assay: as above; type: cell-based
Excerpt: as §1

[10] = tested on: Klebsiella pneumoniae PCI602; assay: as above; type: cell-based
Excerpt: as §1

[11] = tested on: Marganella morganii 1510/S-1; assay: as above; type: cell-based
Excerpt: as §1

Marganella morganii 1510 = assay: as above; type: cell-based
Excerpt: as §1

[12] = tested on: Proteus vulgaris GN76/C-1; assay: as above; type: cell-based
Excerpt: as §1

Proteus vulgaris GN76 = assay: as above; type: cell-based
Excerpt: as §1

[13] = tested on: Pseudomonas aeruginosa GN10362; assay: as above; type: cell-based
Excerpt: as §1

[14] = tested on: Serratia marcescens GN10857; assay: as above; type: cell-based
Excerpt: as §1

[15] = tested on: Serratia marcescens No. 1; assay: as above; type: cell-based
Excerpt: as §1

[16] = tested on: Staphylococcus aureus 209P JC-1; assay: as above; type: cell-based
Excerpt: as §1

[17] = tested on: Staphylococcus epidermidis ATCC14990; assay: as above; type: cell-based
Excerpt: as §1

| Structure (SMILES) | MIC [1] [µg/mL] | MIC [2] [µg/mL] | MIC [3] [µg/mL] | MIC [4] [µg/mL] | MIC [5] [µg/mL] | MIC [6] [µg/mL] | MIC (Escherichia coli 255/S-1) [µg/mL] | MIC (Escherichia coli 255) [µg/mL] | MIC (Escherichia coli GN206) [µg/mL] | MIC [7] [µg/mL] | MIC [8] [µg/mL] | MIC [9] [µg/mL] | MIC [10] [µg/mL] | MIC [11] [µg/mL] | MIC (Marganella morganii 1510) [µg/mL] | MIC [12] [µg/mL] | MIC (Proteus vulgaris GN76) [µg/mL] | MIC [13] [µg/mL] | MIC [14] [µg/mL] | MIC [15] [µg/mL] | also measured |
| --- | --- | --- | --- | --- | --- | --- | --- | --- | --- | --- | --- | --- | --- | --- | --- | --- | --- | --- | --- | --- | --- |
| CO/N=C(\C(=O)NC1C(=O)N2C(C(=O)OCOC(=O)C(C)(C)C)=C(SCC3CCOC3)CS[C@H]12)c1csc(N)n1 (some centres unmarked) [Compound No. 28, pivaloyloxymethyl 7-[(Z)-2-(2-aminothiazol-4-yl)-2-methoxyiminoacetamido]-3-(tetrahydrofuran-3-yl) methylthio-3-cephem-4-carboxylate] |  |  |  |  |  |  |  |  |  |  |  |  |  |  |  |  |  |  |  |  | NOAEL (oral toxicity in mice): 3000 mg/kg |
| CO/N=C(\C(=O)NC1C(=O)N2C(C(=O)OCOC(=O)C(C)(C)C)=C(SC3CCOC3)CS[C@H]12)c1csc(N)n1 (some centres unmarked) [Compound No. 4, pivaloyloxymethyl 7-[(Z)-2-(2-aminothiazol-4-yl)-2-methoxyiminoacetamido]-3-(tetrahydrofuran-3-Yl) thio-3-cephem-4-carboxylate] |  |  |  |  |  |  |  |  |  |  |  |  |  |  |  |  |  |  |  |  | NOAEL (oral toxicity in mice): 3000 mg/kg |
| CC1(C)OCCC(CSC2=C(C(=O)O)N3C(=O)C(NC(=O)/C(=N\O)c4csc(N)n4)[C@H]3SC2)O1 (some centres unmarked) [Compound No. 17, 7 - [(Z)-2-(2-aminothiazol-4-yl) -2-hydroxyiminoacetamido]-3-(2,2-dimethyl-1,3-dioxan-4-yl)methylthio-3-cephem-4-carboxylic acid] | 12.5 (≈ 23.6 µM) | > 100 | 12.5 (≈ 23.6 µM) | > 100 | 25 (≈ 47.2 µM) | 6.25 (≈ 11.8 µM) | 6.25 (≈ 11.8 µM) | 100 (≈ 189 µM) | 25 (≈ 47.2 µM) | 6.25 (≈ 11.8 µM) | 6.25 (≈ 11.8 µM) | 3.13 (≈ 5.91 µM) | 6.25 (≈ 11.8 µM) | 3.13 (≈ 5.91 µM) | > 100 | 25 (≈ 47.2 µM) | 3.13 (≈ 5.91 µM) | > 100 | > 100 | 12.5 (≈ 23.6 µM) | MIC [16]: 0.78 µg/mL (≈ 1.47 µM); MIC [17]: 0.39 µg/mL (≈ 0.736 µM) |
| Nc1nc(/C(=N/O)C(=O)NC2C(=O)N3C(C(=O)O)=C(SC4CCOC4)CS[C@H]23)cs1 (some centres unmarked) [Compound No. 13, 7-[(Z)-2-(2-aminothiazol-4-yl)-2-hydroxyiminoacetamido]-3-(tetrahydrofuran-3-yl)thio-3-cephem-4-carboxylic acid] | 3.13 (≈ 6.64 µM) | > 100 | 6.25 (≈ 13.3 µM) | 100 (≈ 212 µM) | 3.13 (≈ 6.64 µM) | 12.5 (≈ 26.5 µM) | 0.39 (≈ 0.827 µM) | 50 (≈ 106 µM) | 12.5 (≈ 26.5 µM) | 0.39 (≈ 0.827 µM) | 1.56 (≈ 3.31 µM) | 0.39 (≈ 0.827 µM) | 0.2 (≈ 0.424 µM) | 0.2 (≈ 0.424 µM) | 12.5 (≈ 26.5 µM) | 6.25 (≈ 13.3 µM) | 1.56 (≈ 3.31 µM) | > 100 | > 100 | 3.13 (≈ 6.64 µM) | MIC [16]: 0.2 µg/mL (≈ 0.424 µM); MIC [17]: 0.2 µg/mL (≈ 0.424 µM) |
| Nc1nc(/C(=N/O)C(=O)NC2C(=O)N3C(C(=O)O)=C(SCC4CCCO4)CS[C@H]23)cs1 (some centres unmarked) [Compound No. 11, 7-[(Z)-2-(2-aminothiazol-4-yl)-2-hydroxyiminoacetamido]-3-tetrahydrofurfurylthio-3-cephem-4-carboxylic acid] | 6.25 (≈ 12.9 µM) | > 100 | 1.56 (≈ 3.21 µM) | 50 (≈ 103 µM) | 6.25 (≈ 12.9 µM) | 6.25 (≈ 12.9 µM) | 0.78 (≈ 1.61 µM) | 50 (≈ 103 µM) | 12.5 (≈ 25.7 µM) | 1.56 (≈ 3.21 µM) | 1.56 (≈ 3.21 µM) | 0.78 (≈ 1.61 µM) | 0.78 (≈ 1.61 µM) | 0.39 (≈ 0.803 µM) | 50 (≈ 103 µM) | 6.75 (≈ 13.9 µM) | 0.78 (≈ 1.61 µM) | > 100 | > 100 | 1.56 (≈ 3.21 µM) | MIC [16]: 0.2 µg/mL (≈ 0.412 µM); MIC [17]: 0.2 µg/mL (≈ 0.412 µM) |

Reference: patent US5332731A, “Cephalosporin derivatives” (Meiji Seika Kaisha, Ltd., priority 1989, dated 1994)
